Assays:
[1] = biological target: D. immitis Slo-1 (Dirofilaria immitis, UniProt I0DFK5); test: D. immitis Slo-1, action at a recombinant CHO cell line (membrane potential, FLIPR); assay type: cell-based
[2] = system: Nippostrongylus brasiliensis; test: Nippostrongylus brasiliensis (NIPOBR) adult worms, acetylcholine esterase readout; details: read-out: activity (reduction of AChE compared to negative control); for inhibition at 1 µg/mL: at 1 μg/ml (1 ppm); for inhibition at 10 µg/mL: at 10 μg/ml (10 ppm)
Protocol: In Vitro Assay 3: Nippostrongylus brasiliensis (NIPOBR)
Adult Nippostrongylus brasiliensis were washed with saline buffer containing 100 U/ml penicillin, 0.1 mg/ml streptomycin and 2.5 μg/ml amphotericin B. Test compounds were dissolved in DMSO and worms were incubated in medium in a final concentration of 10 μg/ml (10 ppm) respectively 1 μg/ml (1 ppm). An aliquot of the medium was used to determine the acetylcholine esterase activity in comparison to a negative control. The principle of measuring acetylcholine esterase as readout for anthelmintic activity was described in Rapson et al (1986) and Rapson et al (1987).

[3] = system: Dirofilaria immitis microfilariae; test: Dirofilaria immitis microfilariae (DIROIM L1) motility; details: 72 h, read-out: EC50 (reduction of motility)
[4] = system: Dirofilaria immitis; test: Dirofilaria immitis (DIROIM L4) larval motility; details: 72 h, read-out: EC50 (reduction of motility)
[5] = biological target: C. elegans Slo-1a (Caenorhabditis elegans, UniProt Q95V25); details: pE50 (negative decadic logarithm of EC50), CHO cells expressing C. elegans Slo-1a; voltage sensitive dye, 70 mM KCl
Chain of C. elegans Slo-1a (Q95V25 whole entry): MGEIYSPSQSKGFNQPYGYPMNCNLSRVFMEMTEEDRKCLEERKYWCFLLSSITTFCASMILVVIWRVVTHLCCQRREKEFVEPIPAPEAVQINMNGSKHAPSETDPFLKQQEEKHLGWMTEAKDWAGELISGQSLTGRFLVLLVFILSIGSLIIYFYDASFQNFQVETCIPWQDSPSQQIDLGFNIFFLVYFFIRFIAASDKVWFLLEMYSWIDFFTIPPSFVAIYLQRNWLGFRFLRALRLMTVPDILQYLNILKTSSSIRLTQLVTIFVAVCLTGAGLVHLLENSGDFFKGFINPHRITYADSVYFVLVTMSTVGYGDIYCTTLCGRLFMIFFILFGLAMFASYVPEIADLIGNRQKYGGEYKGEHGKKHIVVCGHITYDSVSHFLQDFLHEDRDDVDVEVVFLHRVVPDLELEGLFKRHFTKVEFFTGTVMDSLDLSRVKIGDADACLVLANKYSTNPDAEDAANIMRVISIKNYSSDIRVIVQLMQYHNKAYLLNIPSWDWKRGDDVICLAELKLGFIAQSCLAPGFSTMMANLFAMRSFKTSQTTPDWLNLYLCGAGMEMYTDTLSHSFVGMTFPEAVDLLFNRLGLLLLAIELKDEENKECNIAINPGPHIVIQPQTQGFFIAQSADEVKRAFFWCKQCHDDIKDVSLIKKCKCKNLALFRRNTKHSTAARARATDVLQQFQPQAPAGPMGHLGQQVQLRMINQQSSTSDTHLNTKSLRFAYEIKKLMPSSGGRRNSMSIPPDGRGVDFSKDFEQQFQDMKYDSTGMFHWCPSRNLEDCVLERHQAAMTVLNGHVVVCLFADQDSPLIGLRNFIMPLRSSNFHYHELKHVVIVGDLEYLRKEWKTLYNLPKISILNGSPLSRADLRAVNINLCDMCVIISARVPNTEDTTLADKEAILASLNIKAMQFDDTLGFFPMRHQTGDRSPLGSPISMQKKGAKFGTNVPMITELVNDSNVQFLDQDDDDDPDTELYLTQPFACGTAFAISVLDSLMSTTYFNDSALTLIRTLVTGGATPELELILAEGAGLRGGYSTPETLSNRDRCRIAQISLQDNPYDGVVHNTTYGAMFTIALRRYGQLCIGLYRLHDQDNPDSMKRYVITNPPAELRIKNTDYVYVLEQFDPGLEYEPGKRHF
Protocol: Generation of a Stable C. elegans CHO Cell Line
A CHO cell line was obtained from ATCC, code ATCC CRL-9096. […] The transfection solution included 300 μL OptiMEM (Life Technologies, Nr.: 31985), 2 μL (=6 μg) of plasmid DNA containing the C. elegans Slo 1a gene and 9 μL FugeneHD (Promega, Nr.: E2311), and was added to the cells prior to incubation for 48 hours at 37° C., 5% CO2. The transfection medium was exchanged for the selection medium which contains additional G418 (2 mg/ml, Invitrogen, Nr.: 10131) and the cells were seeded into 384 well plates (300 cells/well). After a few weeks, the remaining surviving cells were tested with a voltage sensitive dye (Membrane Potential Assay Kit, Molecular Devices Nr.: R8034) for K+ channel expression. Positive cell clones were purified by the limited dilution technique. For this the clone with the highest and most robust signal in the voltage sensitive dye assay was further subcloned (incubated) in 384 well plates (0.7 cells/well) in order to obtain clonal purity. This generated a final stable CHO cell line expressing the C. elegans Slo-1a.
Cells were cultured at 37° C. and 5% CO2 in MEMalpha with Gutamax I (Invitrogen, Nr.: 32571), supplemented with 10% (v/v) heat inactivated fetal bovine serum (Invitrogen, Nr.: 10500), G418 (1 mg/ml, Invitrogen, Nr.: 10131). Cells were detached using Accutase (Sigma, Nr.: A6964).
Membrane Potential Measurements
Laboratory compound testing was performed on 384-well microtiter plates (MTPs, Greiner, Nr.: 781092). 8000 cells/well were plated onto 384-well MTPs and cultured for 20 to 24 hours at 37° C. and 5% CO2. After removal of the cell culture medium, the cells were washed once with tyrode (150 mM NaCl, 0.3 mM KCl, 2 mM CaCl2, 1 mM MgCl2, 0.8 mM NaH2PO4, 5 mM Glucose, 28 mM Hepes, pH 7.4) and then loaded with the voltage sensitive dye of the Membrane Potential Assay Kit diluted in tyrode for 1 h at room temperature.
After starting the measurement of fluorescence using a FLIPR Tetra (Molecular Devices, Exc. 510-545 nm, Emm. 565-625 nm), test compounds were added followed by the addition of KCl tyrode (final assay concentration: 70 mM KCl, 2 mM CaCl2, 1 mM MgCl2, 0.8 mM NaH2PO4, 5 mM Glucose, 28 mM Hepes, pH 7.4, including the voltage sensitive dye). The measurement was completed after 7 minutes.
The data were evaluated by using the ActivityBase XLfit software (IDBS) for curve fitting and calculation of the half-maximal effective concentration (EC50) and are reported as negative decadic logarithm (pE50).

Chain of D. immitis Slo-1 (I0DFK5 1-1119): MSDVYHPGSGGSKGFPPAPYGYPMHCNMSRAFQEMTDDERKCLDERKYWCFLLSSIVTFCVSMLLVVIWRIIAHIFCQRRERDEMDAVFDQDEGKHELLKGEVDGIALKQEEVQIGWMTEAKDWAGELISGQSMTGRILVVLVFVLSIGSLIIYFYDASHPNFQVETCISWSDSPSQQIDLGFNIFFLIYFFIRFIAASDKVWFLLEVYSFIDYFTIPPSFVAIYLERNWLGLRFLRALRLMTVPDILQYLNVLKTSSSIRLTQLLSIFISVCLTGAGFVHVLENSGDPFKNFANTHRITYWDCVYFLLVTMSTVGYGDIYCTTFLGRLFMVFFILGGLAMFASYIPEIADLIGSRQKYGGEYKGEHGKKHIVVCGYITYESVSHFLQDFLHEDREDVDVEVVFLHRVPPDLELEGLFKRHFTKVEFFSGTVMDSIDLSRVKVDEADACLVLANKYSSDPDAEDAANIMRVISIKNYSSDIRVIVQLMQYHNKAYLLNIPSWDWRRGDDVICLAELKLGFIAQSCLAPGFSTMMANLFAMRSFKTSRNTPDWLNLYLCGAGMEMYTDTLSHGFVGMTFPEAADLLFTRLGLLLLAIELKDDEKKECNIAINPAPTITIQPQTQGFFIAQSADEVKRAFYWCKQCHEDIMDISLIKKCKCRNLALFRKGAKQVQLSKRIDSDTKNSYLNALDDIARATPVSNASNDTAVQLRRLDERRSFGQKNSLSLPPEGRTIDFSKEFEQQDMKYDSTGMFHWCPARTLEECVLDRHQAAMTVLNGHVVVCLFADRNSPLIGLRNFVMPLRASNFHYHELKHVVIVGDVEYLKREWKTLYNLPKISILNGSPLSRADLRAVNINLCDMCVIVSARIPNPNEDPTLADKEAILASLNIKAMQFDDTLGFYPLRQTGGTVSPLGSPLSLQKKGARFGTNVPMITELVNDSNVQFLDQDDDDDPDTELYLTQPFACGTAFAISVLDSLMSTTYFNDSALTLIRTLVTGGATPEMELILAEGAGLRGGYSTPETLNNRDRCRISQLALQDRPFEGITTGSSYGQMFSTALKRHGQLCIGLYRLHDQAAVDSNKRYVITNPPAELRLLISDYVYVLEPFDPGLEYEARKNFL

Structure (SMILES) | EC50 [1] | inhibition at 1 µg/mL [2] | inhibition at 10 µg/mL [2] | EC50 [3] | EC50 [4] | EC50 [5]
O=C(N[C@H]1CCOc2ccccc21)c1cnc2c(-c3cc(F)cc(F)c3F)ncc(F)c2c1N1CCOCC1 [Example T1-8, N-[(4S)-3,4-dihydro-2H-1-benzopyran-4-yl]-5-fluoro-4-(morpholin-4-yl)-8-(2,3,5-trifluorophenyl)-1,7-naphthyridine-3-carboxamide] | 31.6 to 316 nM | > 80% | > 80% | < 0.1 µg/mL | < 0.1 µg/mL | –
COc1cnc(-c2cc(F)cc(F)c2F)c2ncc(C(=O)N[C@H]3CCOc4ccccc43)c(N(C)C)c12 [Example T1-13, N-[(4S)-3,4-dihydro-2H-1-benzopyran-4-yl]-4-(dimethylamino)-5-methoxy-8-(2,3,5-trifluorophenyl)-1,7-naphthyridine-3-carboxamide] | 31.6 to 316 nM | > 80% | > 80% | < 0.1 µg/mL | < 0.1 µg/mL | –
O=C(N[C@H]1CCOc2ccccc21)c1cnc2c(-c3cccc(Cl)c3Cl)nccc2c1 [Example T1-15, 8-(2,3-dichlorophenyl)-N-[(4S)-3,4-dihydro-2H-chromen-4-yl]-1,7-naphthyridine-3-carboxamide] | – | – | – | – | – | 31.6 to 316 nM
CN(C)c1c(C(=O)N[C@H]2CCOc3ccccc32)cnc2c(-c3cccc(Cl)c3Cl)cncc12 [Example T2-2, 8-(2,3-Dichlorophenyl)-N-[(4S)-3,4-dihydro-2H-chromen-4-yl]-4-(dimethylamino)-1,6-naphthyridine-3-carboxamide] | – | – | > 80% | < 0.1 µg/mL | – | 3.16 to 31.6 nM
COc1ncc2c(N3CCOCC3)c(C(=O)N[C@H]3CCOc4ccccc43)cnc2c1-c1cccc(Cl)c1Cl [Example T2-6, 8-(2,3-dichlorophenyl)-N-[(4S)-3,4-dihydro-2H-1-benzopyran-4-yl]-7-methoxy-4-(morpholin-4-yl)-1,6-naphthyridine-3-carboxamide] | 3.16 to 31.6 nM | – | – | < 0.1 µg/mL | < 0.1 µg/mL | –
COc1ncc2c(N(C)C)c(C(=O)N[C@H]3CCOc4ccccc43)cnc2c1-c1cccc(Cl)c1Cl [Example T2-7, 8-(2,3-dichlorophenyl)-N-[(4S)-3,4-dihydro-2H-1-benzopyran-4-yl]-4-(dimethylamino)-7-methoxy-1,6-naphthyridine-3-carboxamide] | 3.16 to 31.6 nM | – | – | < 0.1 µg/mL | < 0.1 µg/mL | –
COc1ncc2c(N(C)C)c(C(=O)N[C@H]3CCOc4ccccc43)cnc2c1-c1cc(Cl)cc(Cl)c1 [Example T2-8, 8-(3,5-dichlorophenyl)-N-[(4S)-3,4-dihydro-2H-1-benzopyran-4-yl]-4-(dimethylamino)-7-methoxy-1,6-naphthyridine-3-carboxamide] | 3.16 to 31.6 nM | > 80% | > 80% | < 0.1 µg/mL | < 0.1 µg/mL | –
COc1ncc2c(N3CCOCC3)c(C(=O)N[C@H]3CCOc4ccccc43)cnc2c1-c1cc(Cl)cc(Cl)c1 [Example T2-9, 8-(3,5-dichlorophenyl)-N-[(4S)-3,4-dihydro-2H-1-benzopyran-4-yl]-7-methoxy-4-(morpholin-4-yl)-1,6-naphthyridine-3-carboxamide] | 3.16 to 31.6 nM | > 80% | > 80% | < 0.1 µg/mL | < 0.1 µg/mL | –
COc1ncc(-c2cc(Cl)cc(Cl)c2)c2ncc(C(=O)N[C@H]3CCOc4ccccc43)c(N3CCOCC3)c12 [Example T2-10, 8-(3,5-dichlorophenyl)-N-[(4S)-3,4-dihydro-2H-1-benzopyran-4-yl]-5-methoxy-4-(morpholin-4-yl)-1,6-naphthyridine-3-carboxamide] | 31.6 to 316 nM | > 80% | > 80% | < 0.1 µg/mL | < 0.1 µg/mL | –
CN(C)c1c(C(=O)N[C@H]2CCOc3ccccc32)cnc2c(-c3cc(F)cc(F)c3F)c(Cl)cnc12 [Example T3-5, 7-chloro-N-[(4S)-3,4-dihydro-2H-1-benzopyran-4-yl]-4-(dimethylamino)-8-(2,3,5-trifluorophenyl)-1,5-naphthyridine-3-carboxamide] | 3.16 to 31.6 nM | – | – | < 0.1 µg/mL | < 0.1 µg/mL | –
O=C(N[C@H]1CCOc2ccccc21)c1cnc2c(-c3cc(F)cc(F)c3F)c(Cl)cnc2c1N1CCOCC1 [Example T3-6, 7-chloro-N-[(4S)-3,4-dihydro-2H-1-benzopyran-4-yl]-4-(morpholin-4-yl)-8-(2,3,5-trifluorophenyl)-1,5-naphthyridine-3-carboxamide] | 3.16 to 31.6 nM | – | – | < 0.1 µg/mL | < 0.1 µg/mL | –
CN(C)c1c(C(=O)N[C@H]2CCOc3ccccc32)cnc2c(-c3cc(Cl)cc(Cl)c3)c(Cl)cnc12 [Example T3-7, 7-chloro-8-(3,5-dichlorophenyl)-N-[(4S)-3,4-dihydro-2H-1-benzopyran-4-yl]-4-(dimethylamino)-1,5-naphthyridine-3-carboxamide] | 3.16 to 31.6 nM | – | – | < 0.1 µg/mL | < 0.1 µg/mL | –
CN(C)c1c(C(=O)N[C@H]2CCOc3ccccc32)cnc2c(-c3cccc(Cl)c3Cl)c(Cl)cnc12 [Example T3-8, 7-chloro-8-(2,3-dichlorophenyl)-N-[(4S)-3,4-dihydro-2H-1-benzopyran-4-yl]-4-(dimethylamino)-1,5-naphthyridine-3-carboxamide] | 3.16 to 31.6 nM | > 80% | > 80% | < 0.1 µg/mL | < 0.1 µg/mL | –
O=C(N[C@H]1CCOc2ccccc21)c1cnc2c(-c3cccc(Cl)c3Cl)c(Cl)cnc2c1N1CCOCC1 [Example T3-9, 7-chloro-8-(2,3-dichlorophenyl)-N-[(4S)-3,4-dihydro-2H-1-benzopyran-4-yl]-4-(morpholin-4-yl)-1,5-naphthyridine-3-carboxamide] | 3.16 to 31.6 nM | > 80% | > 80% | < 0.1 µg/mL | < 0.1 µg/mL | –
COc1cnc2c(N(C)C)c(C(=O)N[C@H]3CCOc4ccccc43)cnc2c1-c1cc(Cl)cc(Cl)c1 [Example T3-10, 8-(3,5-dichlorophenyl)-N-[(4S)-3,4-dihydro-2H-1-benzopyran-4-yl]-4-(dimethylamino)-7-methoxy-1,5-naphthyridine-3-carboxamide] | 3.16 to 31.6 nM | > 80% | > 80% | < 0.1 µg/mL | < 0.1 µg/mL | –
CN(C)c1c(C(=O)N[C@H]2CCOc3ccccc32)cnc2c(-c3cc(Cl)cc(Cl)c3)c(F)cnc12 [Example T3-11, 8-(3,5-dichlorophenyl)-N-[(4S)-3,4-dihydro-2H-1-benzopyran-4-yl]-4-(dimethylamino)-7-fluoro-1,5-naphthyridine-3-carboxamide] | 3.16 to 31.6 nM | > 80% | > 80% | < 0.1 µg/mL | < 0.1 µg/mL | –
COc1cnc2c(N(C)C)c(C(=O)N[C@H]3CCOc4ccccc43)cnc2c1-c1cccc(Cl)c1Cl [Example T3-12, 8-(2,3-dichlorophenyl)-N-[(4S)-3,4-dihydro-2H-1-benzopyran-4-yl]-4-(dimethylamino)-7-methoxy-1,5-naphthyridine-3-carboxamide] | 3.16 to 31.6 nM | > 80% | > 80% | < 0.1 µg/mL | < 0.1 µg/mL | –
COc1cnc2c(N3CCOCC3)c(C(=O)N[C@H]3CCOc4ccccc43)cnc2c1-c1cccc(Cl)c1Cl [Example T3-14, 8-(2,3-dichlorophenyl)-N-[(4S)-3,4-dihydro-2H-1-benzopyran-4-yl]-7-methoxy-4-(morpholin-4-yl)-1,5-naphthyridine-3-carboxamide] | 3.16 to 31.6 nM | > 80% | > 80% | < 0.1 µg/mL | < 0.1 µg/mL | –
COc1cnc2c(N3CCOCC3)c(C(=O)N[C@H]3CCOc4ccccc43)cnc2c1-c1cc(F)cc(F)c1F [Example T3-16, N-[(4S)-3,4-dihydro-2H-1-benzopyran-4-yl]-7-methoxy-4-(morpholin-4-yl)-8-(2,3,5-trifluorophenyl)-1,5-naphthyridine-3-carboxamide] | 3.16 to 31.6 nM | > 80% | > 80% | < 0.1 µg/mL | < 0.1 µg/mL | –
O=C(N[C@H]1CCOc2ccccc21)c1cnc2c(-c3cccc(Cl)c3Cl)c(F)cnc2c1N1CCOCC1 [Example T3-18, 8-(2,3-dichlorophneyl)-N-[(4S)-3,4-dihydro-2H-1-benzopyran-4-yl]-7-fluoro-4-(morpholin-4-yl)-1,5-naphthyridine-3-carboxamide] | 3.16 to 31.6 nM | > 80% | > 80% | < 0.1 µg/mL | < 0.1 µg/mL | –
CN(C)c1c(C(=O)N[C@H]2CCOc3ccccc32)cnc2c(-c3cc(F)cc(F)c3F)c(F)cnc12 [Example T3-19, N-[(4S)-3,4-dihydro-2H-1-benzopyran-4-yl]-4-(dimethylamino)-7-fluoro-8-(2,3,5-trifluorophenyl)-1,5-naphthyridine-3-carboxamide] | 3.16 to 31.6 nM | > 80% | > 80% | < 0.1 µg/mL | < 0.1 µg/mL | –
CN(C)c1c(C(=O)N[C@H]2CCOc3ccccc32)nnc2c(-c3ccc(F)c(F)c3)cccc12 [Example T5-4, 8-(3,4-Difluorophenyl)-N-[(4S)-3,4-dihydro-2H-chromen-4-yl]-4-(dimethylamino)cinnoline-3-carboxamide] | 31.6 to 316 nM | – | – | < 0.1 µg/mL | – | 31.6 to 316 nM
